Columns and labels:
[1] = molecular target: T1, Delta-type opioid receptor (Rattus norvegicus, UniProt P33533); assay: Ability to displace [3H]DADL from delta opioid receptor
[2] = molecular target: T2, Kappa-type opioid receptor (Cavia porcellus, UniProt P41144); assay: Ability to displace [3H]U-69593 from kappa opioid receptor
Mu-type opioid receptor [3] = molecular target: T3, Mu-type opioid receptor (Rattus norvegicus, UniProt P33535); assay: Ability to displace [3H]DAMGO from mu opioid receptor
T3 sequence (P33535 whole entry): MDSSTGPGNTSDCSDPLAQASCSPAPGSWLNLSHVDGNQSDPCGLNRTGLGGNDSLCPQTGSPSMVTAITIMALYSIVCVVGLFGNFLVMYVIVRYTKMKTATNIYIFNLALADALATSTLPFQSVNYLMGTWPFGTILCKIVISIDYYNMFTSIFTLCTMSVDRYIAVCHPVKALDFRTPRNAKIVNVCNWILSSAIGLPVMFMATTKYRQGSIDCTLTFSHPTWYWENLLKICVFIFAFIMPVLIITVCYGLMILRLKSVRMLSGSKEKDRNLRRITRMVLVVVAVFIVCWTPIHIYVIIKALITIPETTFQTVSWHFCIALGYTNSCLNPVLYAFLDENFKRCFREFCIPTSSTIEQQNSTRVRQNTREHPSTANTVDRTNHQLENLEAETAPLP

[4] = molecular target: Opioid receptors; mu & delta (Homo sapiens) (UniProt P41143+P35372); assay: Ratio of binding affinities of mu and delta opioid receptors; assay type: protein assay
Chain of Opioid receptors; mu & delta (Homo sapiens) (P35372 whole entry, looked up): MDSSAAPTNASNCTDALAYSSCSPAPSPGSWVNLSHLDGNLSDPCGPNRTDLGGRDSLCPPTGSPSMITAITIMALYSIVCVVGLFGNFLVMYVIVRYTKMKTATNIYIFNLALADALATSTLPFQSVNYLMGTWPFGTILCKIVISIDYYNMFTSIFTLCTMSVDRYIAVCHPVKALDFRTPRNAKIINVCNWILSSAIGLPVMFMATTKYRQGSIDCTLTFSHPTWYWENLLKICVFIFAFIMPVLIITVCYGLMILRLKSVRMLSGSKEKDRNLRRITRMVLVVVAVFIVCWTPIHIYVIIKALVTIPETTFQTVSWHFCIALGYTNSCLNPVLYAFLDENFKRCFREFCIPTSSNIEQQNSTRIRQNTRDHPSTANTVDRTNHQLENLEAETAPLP
Chain of Opioid receptors; mu & delta (Homo sapiens) (P41143 whole entry, looked up): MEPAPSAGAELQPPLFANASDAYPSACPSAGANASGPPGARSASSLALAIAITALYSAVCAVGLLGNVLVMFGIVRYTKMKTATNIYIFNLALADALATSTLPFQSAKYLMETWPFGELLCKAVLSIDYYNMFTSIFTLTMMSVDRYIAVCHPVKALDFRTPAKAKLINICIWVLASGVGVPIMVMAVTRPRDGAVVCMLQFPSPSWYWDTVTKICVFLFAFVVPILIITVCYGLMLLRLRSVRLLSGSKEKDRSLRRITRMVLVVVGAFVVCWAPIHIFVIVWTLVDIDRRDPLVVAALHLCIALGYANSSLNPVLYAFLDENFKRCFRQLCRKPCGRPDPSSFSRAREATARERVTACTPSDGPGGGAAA

[5] = molecular target: T1, Delta-type opioid receptor; assay: Ability to inhibit binding of SNC80 to delta opioid receptor
[6] = molecular target: T2, Kappa-type opioid receptor; assay: Ability to inhibit binding of U-69,593 to kappa opioid receptor
Mu-type opioid receptor [7] = molecular target: T3, Mu-type opioid receptor; assay: Ability to inhibit binding of [3H]DAMGO to mu opioid receptor

T2 sequence (P41144 whole entry): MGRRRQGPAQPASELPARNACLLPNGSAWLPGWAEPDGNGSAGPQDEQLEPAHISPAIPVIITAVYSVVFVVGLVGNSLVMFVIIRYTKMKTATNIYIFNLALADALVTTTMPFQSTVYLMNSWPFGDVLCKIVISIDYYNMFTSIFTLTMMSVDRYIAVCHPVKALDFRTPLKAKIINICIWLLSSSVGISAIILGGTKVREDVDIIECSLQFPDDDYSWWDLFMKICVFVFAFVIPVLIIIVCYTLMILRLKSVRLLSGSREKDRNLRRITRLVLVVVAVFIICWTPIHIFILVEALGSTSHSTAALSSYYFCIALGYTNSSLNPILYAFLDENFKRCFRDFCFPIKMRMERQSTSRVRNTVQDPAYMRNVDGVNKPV
T1 sequence (P33533 whole entry): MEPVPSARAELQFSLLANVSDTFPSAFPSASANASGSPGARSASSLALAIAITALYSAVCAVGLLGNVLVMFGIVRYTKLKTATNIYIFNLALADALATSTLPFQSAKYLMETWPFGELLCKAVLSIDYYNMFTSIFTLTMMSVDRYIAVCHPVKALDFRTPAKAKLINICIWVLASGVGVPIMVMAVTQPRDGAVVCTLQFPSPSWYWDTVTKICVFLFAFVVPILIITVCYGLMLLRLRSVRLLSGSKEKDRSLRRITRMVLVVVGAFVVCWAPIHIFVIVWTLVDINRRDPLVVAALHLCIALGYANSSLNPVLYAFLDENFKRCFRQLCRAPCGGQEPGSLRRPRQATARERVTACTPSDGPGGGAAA

Row | Structure (SMILES) | Ki [1] | Ki [2] | Ki (Mu-type opioid receptor [3]) | Ratio [4] | Ki [5] | Ki [6] | Ki (Mu-type opioid receptor [7])
1 | O[C@@]12Cc3c([nH]c4ccccc34)C3Oc4c(OCCCc5ccccc5)ccc5c4[C@@]31CCN(CC1CC1)[C@@H]2C5 (some centres undefined) | 99 nM | > 5320 nM | > 6250 nM | 54 |  |  | 
2 | COc1ccc2c3c1OC1c4[nH]c5ccccc5c4C[C@@]4(O)[C@@H](C2)N(CC2CC2)CC[C@]314 (some centres undefined) | 6.57 nM | 3910 nM | 2510 nM |  | 9 nM | 1760 nM | 411 nM
3 | Oc1ccc2c3c1O[C@H]1c4[nH]c5ccccc5c4C[C@@]4(O)[C@@H](C2)N(CC2CC2)CC[C@]314 [NALTRINDOLE] |  |  |  |  | 0.062 nM |  | 
4 | O[C@@]12Cc3c([nH]c4ccccc34)C3Oc4c(OCCc5ccccc5)ccc5c4[C@@]31CCN(CC1CC1)[C@@H]2C5 (some centres undefined) | 1040 nM | > 7040 nM | > 6250 nM | 7 |  |  | 
5 | O[C@@]12Cc3c([nH]c4ccccc34)C3Oc4c(OCc5ccccc5)ccc5c4[C@@]31CCN(CC1CC1)[C@@H]2C5 (some centres undefined) | 103 nM | 728 nM | 396 nM | 4 |  |  | 
